ChEMBL document CHEMBL1150212, “Antitumor agents, 129. Tannins and related compounds as selective cytotoxic agents” (1992)

Tests used:
Assay type in all cases: functional
Settings in all cases: read-out: ED50 (the source's name)
[1] = Cytotoxicity against human […] cells by tetrazolium salt-based colorimetric assay
KB = experiment: Cytotoxicity against human KB cells by tetrazolium salt-based colorimetric assay
A549 = experiment: Cytotoxicity against human A549 cells by tetrazolium salt-based colorimetric assay
HCT-8 = experiment: Cytotoxicity against human HCT8 cells by tetrazolium salt-based colorimetric assay
TE-671 = experiment: Cytotoxicity against human TE671 cells by tetrazolium salt-based colorimetric assay

Row | Structure (SMILES) | EC50 [1] | EC50 (KB) | EC50 (A549) | EC50 (HCT-8) | EC50 (TE-671)
1 | O=C(O[C@@H]1O[C@@H]2COC(=O)c3cc(O)c(O)c(O)c3-c3c(cc(O)c(O)c3O)C(=O)O[C@H]([C@H]1O)[C@@H]2O)c1cc(O)c(O)c(O)c1 [CORILAGIN] | > 10 mg/L | > 10 mg/L | > 10 mg/L | > 10 mg/L | > 10 mg/L
2 | O=C(O[C@@H]1O[C@@H]2COC(=O)c3cc(O)c(O)c(O)c3-c3c(cc(Oc4c(C(=O)O)cc(O)c(O)c4O)c(O)c3O)C(=O)O[C@H]([C@H]1O)[C@@H]2O)c1cc(O)c(O)c(O)c1 [MALLOTINIC ACID] | > 10 mg/L | > 10 mg/L | > 10 mg/L | > 10 mg/L | > 10 mg/L
3 | O=C(OC[C@H]1O[C@@H](OC(=O)c2cc(O)c(O)c(O)c2)[C@H](OC(=O)c2cc(O)c(O)c(O)c2)[C@@H](OC(=O)c2cc(O)c(O)c(O)c2)[C@@H]1O)c1cc(O)c(O)c(O)c1 | > 10 mg/L | > 10 mg/L | > 10 mg/L | > 10 mg/L | > 10 mg/L
4 | O=C(O[C@@H]1[C@@H](c2c(O)cc(O)c3c2O[C@H](c2ccc(O)c(O)c2)[C@H](OC(=O)c2cc(O)c(O)c(O)c2)C3)c2c(O)cc(O)c([C@H]3c4c(O)cc(O)cc4O[C@H](c4ccc(O)c(O)c4)[C@@H]3OC(=O)c3cc(O)c(O)c(O)c3)c2O[C@@H]1c1ccc(O)c(O)c1)c1cc(O)c(O)c(O)c1 | 3.05 mg/L | > 10 mg/L | > 10 mg/L | > 10 mg/L | > 10 mg/L
5 | O=C(O)C[C@H]1C(=O)O[C@H]2[C@H](OC(=O)c3cc(O)c(O)c(O)c3)[C@@H](OC(=O)c3cc(O)c(O)c4c3[C@H]1[C@H](O)C(=O)O4)[C@H](OC(=O)c1cc(O)c(O)c(O)c1)O[C@@H]2COC(=O)c1cc(O)c(O)c(O)c1 [CHEBULINIC ACID] | > 10 mg/L | > 10 mg/L | > 10 mg/L | > 10 mg/L | > 10 mg/L
6 | O=C(O[C@@H]1O[C@@H]2COC(=O)c3cc(O)c(O)c(O)c3-c3c(cc(O)c(O)c3O)C(=O)O[C@H]([C@H]1OC(=O)c1cc(O)c(O)c(O)c1)[C@@H]2OC(=O)c1cc(O)c(O)c(O)c1)c1cc(O)c(O)c(O)c1 [PUNICAFOLIN] | > 10 mg/L | > 10 mg/L | > 10 mg/L | > 10 mg/L | > 10 mg/L
7 | O=C1O[C@H]([C@@H]2OC(=O)c3cc(O)c(O)c(O)c3-c3c(O)c(O)c4oc(=O)c5c(c(O)c(O)c6oc(=O)c3c4c65)-c3c(cc(O)c(O)c3O)C(=O)OC[C@H]2O)[C@@H]2OC(=O)c3c(c(O)c(O)c(O)c3[C@H]2O)-c2c1cc(O)c(O)c2O [PUNICACORTEIN C] | 3.86 mg/L | > 10 mg/L | > 10 mg/L | > 10 mg/L | > 10 mg/L
8 | O=C(O[C@@H]1O[C@@H]2COC(=O)c3cc(O)c(O)c(O)c3-c3c(cc(O)c(O)c3O)C(=O)O[C@@H]3[C@H]1OC(=O)c1cc(O)c(O)c4c1C1C(O)(O4)[C@]4(O)C[C@@]5(C(=O)O[C@H]6C(O)CO[C@@]65O)[C@]1(CC4=O)C(=O)O[C@@H]32)c1cc(O)c(O)c(O)c1 (stereo not given in full) [ELAEOCARPUSIN] | 2.62 mg/L | > 10 mg/L | > 10 mg/L | > 10 mg/L | > 10 mg/L
